Data published in ChEMBL document CHEMBL1201862, “PubChem BioAssay data set” (2004).
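Method: 48-hour compound exposure of cells in 96-well plates, five concentrations, linear interpolation of endpoints. At the GI50, growth is halved.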 Calls of active or inactive are those of the source. Cut-off read from the data, not from the text of the source: active = GI50 up to about 1.1 µM and inactive = higher.

Experiments:
Test in all cases: DTP human tumour cell line panel, 48 h
SK-MEL-2 = test system: SK-MEL-2
SNB-75 = test system: SNB-75
ACHN = test system: ACHN
U-251 = test system: U-251
PC-3 = test system: PC-3
T47D = test system: T47D
OVCAR-5 = test system: OVCAR-5
SNB-19 = test system: SNB-19
UACC-257 = test system: UACC-257
HCT-116 = test system: HCT-116
A549 = test system: A549
NCI/ADR-RES = test system: NCI/ADR-RES
786-0 = test system: 786-0
MDA-MB-435 = test system: MDA-MB-435
NCI-H23 = test system: NCI-H23
SW-620 = test system: SW-620
HCC 2998 = test system: HCC 2998
MCF7 = test system: MCF7
UACC-62 = test system: UACC-62
M14 = test system: M14

SMILES | GI50 (SK-MEL-2) | GI50 (SNB-75) | GI50 (ACHN) | GI50 (U-251) | GI50 (PC-3) | GI50 (T47D) | GI50 (OVCAR-5) | GI50 (SNB-19) | GI50 (UACC-257) | GI50 (HCT-116) | GI50 (A549) | GI50 (NCI/ADR-RES) | GI50 (786-0) | GI50 (MDA-MB-435) | GI50 (NCI-H23) | GI50 (SW-620) | GI50 (HCC 2998) | GI50 (MCF7) | GI50 (UACC-62) | GI50 (M14)
CCOC(=O)C(NC(=O)OC(C)(C)C)C(=O)OCC | > 100 µM (inactive) | > 100 µM (inactive) | > 100 µM (inactive) | > 100 µM (inactive) | > 100 µM (inactive) | > 100 µM (inactive) | > 100 µM (inactive) | > 100 µM (inactive) | > 100 µM (inactive) | > 100 µM (inactive) | > 100 µM (inactive) | > 100 µM (inactive) | > 100 µM (inactive) | > 100 µM (inactive) | > 100 µM (inactive) | > 100 µM (inactive) | > 100 µM (inactive) | > 100 µM (inactive) | > 100 µM (inactive) | 
COc1c(Br)cc2ccccc2c1-c1c(OC)c(Br)cc2ccccc12 | > 100 µM (inactive) | > 100 µM (inactive) | > 100 µM (inactive) | > 100 µM (inactive) | 95.9 µM (inactive) | 7.01 µM (inactive) | > 100 µM (inactive) | > 100 µM (inactive) | > 100 µM (inactive) |  | > 100 µM (inactive) | > 100 µM (inactive) | > 100 µM (inactive) | > 100 µM (inactive) | > 100 µM (inactive) | > 100 µM (inactive) | > 100 µM (inactive) | 49.9 µM (inactive) | > 100 µM (inactive) | > 100 µM (inactive)
c1ncn(C23C4C5C6C4C2C6C53)n1 (centres undefined) | > 100 µM (inactive) | > 100 µM (inactive) | > 100 µM (inactive) | > 100 µM (inactive) | > 100 µM (inactive) | > 100 µM (inactive) | > 100 µM (inactive) | > 100 µM (inactive) | > 100 µM (inactive) | > 100 µM (inactive) | > 100 µM (inactive) | > 100 µM (inactive) | > 100 µM (inactive) | > 100 µM (inactive) | > 100 µM (inactive) | > 100 µM (inactive) | > 100 µM (inactive) | > 100 µM (inactive) |  | 
COc1ccc(N/N=C2\CCOc3ccc(C)cc3C2=O)cc1 | 16.8 µM (inactive) |  | 12.4 µM (inactive) | 20.9 µM (inactive) | 10.6 µM (inactive) | 2.14 µM (inactive) | 91.4 µM (inactive) | 39.7 µM (inactive) | 14.9 µM (inactive) | 19.5 µM (inactive) | 21.3 µM (inactive) | 9.4 µM (inactive) | 17.4 µM (inactive) | 3.18 µM (inactive) |  | 20 µM (inactive) | 13.6 µM (inactive) | 14.4 µM (inactive) | 6.81 µM (inactive) | 26.9 µM (inactive)
CN(C)Cc1cc(/N=N/c2ccccc2Cl)cc(CN(C)C)c1O |  | 56.4 µM (inactive) | > 100 µM (inactive) | 84.3 µM (inactive) | 33.5 µM (inactive) | > 100 µM (inactive) | 46.9 µM (inactive) | > 100 µM (inactive) | 20.1 µM (inactive) | 53 µM (inactive) | 77.4 µM (inactive) | 63.7 µM (inactive) | 76.9 µM (inactive) | 34.4 µM (inactive) | > 100 µM (inactive) | 90.2 µM (inactive) | 48.2 µM (inactive) | > 100 µM (inactive) | 26.2 µM (inactive) | 29.4 µM (inactive)
CCOC(=O)c1c(N2CCCC2)[nH]c(=O)c(C(c2c(O)c(C(=O)OCC)c(N3CCCC3)[nH]c2=O)C(C)C)c1O |  | 25.3 µM (inactive) | > 100 µM (inactive) | 37.8 µM (inactive) | 33.6 µM (inactive) | > 100 µM (inactive) | 33.2 µM (inactive) | 70.6 µM (inactive) | > 100 µM (inactive) | > 100 µM (inactive) | > 100 µM (inactive) | > 100 µM (inactive) | 61.8 µM (inactive) | > 100 µM (inactive) | 71.1 µM (inactive) | > 100 µM (inactive) | 52.8 µM (inactive) | > 100 µM (inactive) | > 100 µM (inactive) | > 100 µM (inactive)
N#CCCN(CCC#N)c1ccc(C(=N/c2ccc(Cl)cc2)/N=N/c2ccccc2)cc1 |  | 59.4 µM (inactive) | > 100 µM (inactive) | > 100 µM (inactive) | > 100 µM (inactive) | 12.8 µM (inactive) | > 100 µM (inactive) | > 100 µM (inactive) | 59.4 µM (inactive) | > 100 µM (inactive) | 36.4 µM (inactive) | 36.3 µM (inactive) | > 100 µM (inactive) | 44.9 µM (inactive) | 54.2 µM (inactive) | > 100 µM (inactive) | 26.6 µM (inactive) | > 100 µM (inactive) | 34.3 µM (inactive) | > 100 µM (inactive)
CC1(C)C[C@H](O)[C@H](O)[C@]23C(=O)O[C@H](O)[C@H]2C(C=O)=CC[C@@H]13 |  | > 100 µM (inactive) | > 100 µM (inactive) | 96.2 µM (inactive) | > 100 µM (inactive) | 73.1 µM (inactive) |  | > 100 µM (inactive) | > 100 µM (inactive) | > 100 µM (inactive) | > 100 µM (inactive) | > 100 µM (inactive) | > 100 µM (inactive) | > 100 µM (inactive) | > 100 µM (inactive) | > 100 µM (inactive) | > 100 µM (inactive) | > 100 µM (inactive) | 58.9 µM (inactive) | 
CC(=O)NC1C(OCc2ccccc2)OC(CO)C(O)C1OC(C)C(=O)NC(C(=O)N[C@@H](CCC(=O)NCCNCCNc1c2ccccc2nc2cccc([N+](=O)[O-])c12)C(N)=O)C(C)C (some centres undefined) | 20 µM (inactive) | 77.4 µM (inactive) | 16.4 µM (inactive) | 65.8 µM (inactive) | 28.4 µM (inactive) | 68.2 µM (inactive) |  | 64.1 µM (inactive) |  | 19.9 µM (inactive) | 14.8 µM (inactive) | 91.6 µM (inactive) | 22.4 µM (inactive) | 14.1 µM (inactive) | 34 µM (inactive) | 13.2 µM (inactive) | 21 µM (inactive) | 6.7 µM (inactive) |  | 15.4 µM (inactive)
Nc1nc(Cl)c(N)c(NCC2(CO)CCCC2)n1 | > 100 µM (inactive) | > 100 µM (inactive) | > 100 µM (inactive) | > 100 µM (inactive) | > 100 µM (inactive) | 0.826 µM (active) | > 100 µM (inactive) | > 100 µM (inactive) | 71.6 µM (inactive) | > 100 µM (inactive) | > 100 µM (inactive) | > 100 µM (inactive) | > 100 µM (inactive) | 80 µM (inactive) |  | > 100 µM (inactive) | > 100 µM (inactive) | 90.6 µM (inactive) | 1.83 µM (inactive) | 
CC(C)[C@H]1NC(=O)[C@H]2N=C(S[C@H]2C)[C@@H]2CCCN2C(=O)[C@H](Cc2ccccc2)NC(=O)[C@@H]2CSC(=N2)[C@@H](Cc2ccccc2)NC(=O)[C@@H]2CSC1=N2 | 18.3 µM (inactive) |  | 25.4 µM (inactive) | 14.9 µM (inactive) | 14.6 µM (inactive) | 35 µM (inactive) | > 50 µM (inactive) | 24.2 µM (inactive) | 31.7 µM (inactive) | 30.9 µM (inactive) | 17.3 µM (inactive) | 19.7 µM (inactive) | 33.7 µM (inactive) | 13.7 µM (inactive) | 40.3 µM (inactive) | 18.1 µM (inactive) | 10.7 µM (inactive) | 19.1 µM (inactive) | 29.6 µM (inactive) | 25.7 µM (inactive)
O=C(/C=C/c1ccc(O)c(O)c1)OCCOC(=O)/C=C/c1ccc(O)c(O)c1 | 22.1 µM (inactive) |  | 31.3 µM (inactive) | 25.3 µM (inactive) | 32 µM (inactive) | 24.7 µM (inactive) | 14.2 µM (inactive) | 40.3 µM (inactive) | 17.9 µM (inactive) | 21.1 µM (inactive) | 32.1 µM (inactive) | 39.8 µM (inactive) | 42.3 µM (inactive) | 31.3 µM (inactive) | 29.4 µM (inactive) | 38.1 µM (inactive) | 31.8 µM (inactive) | 34.5 µM (inactive) | 18.7 µM (inactive) | 14.7 µM (inactive)
O=NNc1cnc(O)nc1O | > 100 µM (inactive) | 8.75 µM (inactive) | > 100 µM (inactive) | > 100 µM (inactive) | > 100 µM (inactive) | > 100 µM (inactive) |  | > 100 µM (inactive) | > 100 µM (inactive) | > 100 µM (inactive) | > 100 µM (inactive) | > 100 µM (inactive) | > 100 µM (inactive) | > 100 µM (inactive) | > 100 µM (inactive) | > 100 µM (inactive) | > 100 µM (inactive) | > 100 µM (inactive) | 71.3 µM (inactive) | > 100 µM (inactive)
O=[N+]([O-])c1ccc(/N=N/N2CCCC2)cc1 | > 100 µM (inactive) | > 100 µM (inactive) | > 100 µM (inactive) | > 100 µM (inactive) | > 100 µM (inactive) | > 100 µM (inactive) | > 100 µM (inactive) | > 100 µM (inactive) | > 100 µM (inactive) | > 100 µM (inactive) |  | > 100 µM (inactive) | > 100 µM (inactive) | > 100 µM (inactive) | > 100 µM (inactive) | > 100 µM (inactive) | 4.38 µM (inactive) | > 100 µM (inactive) | > 100 µM (inactive) | > 100 µM (inactive)
